Laboratory results reported in ChEMBL document CHEMBL1150841, “Mirabilin G: a new alkaloid from a southern Australian marine sponge, Clathria species” (J Nat Prod, 2001).
Activity calls are given as the source filed them.

What was measured:
Assay type in all cases: functional, organism-based
Saccharomyces cerevisiae = test: Antimicrobial activity against Saccharomyces cerevisiae
Escherichia coli = test: Antimicrobial activity against Escherichia coli
Serratia marcescens = test: Antimicrobial activity against Serratia marcescens

Measured: inhibition

CCCC/C=C/C1=C2NC(=N)N[C@H]3CC[C@@H](C[C@@H]1C)[C@@H]23
active: all assays above
